In patent US20220202963A1, “RADIOLABELED COMPOUNDS” (Hoffmann-La Roche Inc., priority 2019, published 2022):

What was measured:
[1] = target: T1, MAGL (Homo sapiens, UniProt Q99685); experiment: 2-AG assay (MAGL inhibitory activity, hydrolysis of 2-arachidonoylglycerol followed by mass spectrometry); type: biochemical; details: 50 pM MAGL, 8 μM 2-arachidonoylglycerol, 15 min pre-incubation, 30 min at RT
T1 sequence (Q99685 1-303): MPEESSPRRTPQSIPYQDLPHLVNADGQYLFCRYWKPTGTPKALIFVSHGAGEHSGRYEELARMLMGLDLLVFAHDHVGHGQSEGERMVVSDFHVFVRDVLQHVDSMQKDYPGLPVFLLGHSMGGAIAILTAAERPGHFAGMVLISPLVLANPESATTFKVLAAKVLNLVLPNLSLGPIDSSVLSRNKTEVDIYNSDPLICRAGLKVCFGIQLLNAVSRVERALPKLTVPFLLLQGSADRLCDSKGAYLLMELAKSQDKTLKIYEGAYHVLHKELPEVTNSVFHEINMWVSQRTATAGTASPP
Protocol: Compounds were profiled for MAGL inhibitory activity by determining the enzymatic activity by following the hydrolysis of the natural substrate, 2-arachidonoylglycerol, resulting in arachidonic acid, which can be followed by mass spectrometry. This assay is hereinafter abbreviated “2-AG assay”.
A C18 SPE cartridge (G9205A) was used in an acetonitrile/water liquid setup. […] The activity of the compounds was calculated based on the ratio of intensities [arachidonic acid/d8-arachidonic acid].

[2] = target: T2, MAGL (Mus musculus, UniProt O35678); experiment: In vitro autoradiography of 3H ligands on sagittal mouse brain sections (MAGL WT and ko); details: 1 nM radioligand, 30 min; for binding on wt tissue samples (autoradiography): MAGL WT mouse brain sections; for binding on MAGL ko tissue sections (autoradiography; selectivity, non-specific binding): MAGL ko mouse brain sections
T2 sequence (O35678 1-303): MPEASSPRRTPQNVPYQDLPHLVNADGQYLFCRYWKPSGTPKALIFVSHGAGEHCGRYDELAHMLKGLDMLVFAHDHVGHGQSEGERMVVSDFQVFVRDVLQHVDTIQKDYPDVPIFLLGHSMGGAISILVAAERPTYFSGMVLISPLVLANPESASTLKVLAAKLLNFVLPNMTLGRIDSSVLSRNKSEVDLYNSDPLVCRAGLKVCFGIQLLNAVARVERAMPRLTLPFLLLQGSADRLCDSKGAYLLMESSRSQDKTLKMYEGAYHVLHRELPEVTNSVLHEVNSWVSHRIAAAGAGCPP
Protocol: Receptor autoradiography was performed on sagittal sections of fresh-frozen brains from MAGL WT and ko mice (C57BL6/6NTac-Mgllem4993_02Tac). Tissue sections (10 μm) from brain specimens were cut in a cryostat (Leica CM3050) at −17° C. chamber temperature and −15° C. object temperature and thaw-mounted on microscope glass slides (HistoBond, Paul Marienfeld GmbH, Lauda-Königshofen, Germany). Brain sections were incubated for 30 min in 50 mM Tris-HCl buffer pH 7.4 with 0.1% BSA at RT containing 1 nM of the radioligand. Sections were rinsed three times for 10 min in ice-cold 50 mM Tris-HCl buffer, followed by three dips into ice-cold H2O and air-dried at 4° C. before being exposed to tritium-sensitive imaging plates (BAS-IP TR2025, Fujifilm, Dielsdorf, Switzerland) with a tritium microscale for 5 days at RT. The imaging plates were scanned with a high-resolution phosphor imager (Fuji BAS-5000, Bucher Biotec AG, Basel, Switzerland) and the binding intensity for selected brain areas was quantified using an MCID M2 image analysis software (version 7; InterFocus Imaging GmbH, Mering, Germany).

[3] = target: T3, MAGL (Rattus norvegicus, UniProt Q8R431); experiment: In vivo binding to MAGL assessed by ex vivo autoradiography in CD(SD) rats; parameters: 10 μm sagittal brain sections from Wistar rats were used in in vitro autoradiography; from tissue; host or cells: rat brain (Wistar sections; CD(SD) rats dosed in vivo); details: male CD(SD) rats, 1 mCi/kg i.v., 90 min post injection; blocked by a high dose of a MAGL inhibitor
T3 sequence (Q8R431 1-303): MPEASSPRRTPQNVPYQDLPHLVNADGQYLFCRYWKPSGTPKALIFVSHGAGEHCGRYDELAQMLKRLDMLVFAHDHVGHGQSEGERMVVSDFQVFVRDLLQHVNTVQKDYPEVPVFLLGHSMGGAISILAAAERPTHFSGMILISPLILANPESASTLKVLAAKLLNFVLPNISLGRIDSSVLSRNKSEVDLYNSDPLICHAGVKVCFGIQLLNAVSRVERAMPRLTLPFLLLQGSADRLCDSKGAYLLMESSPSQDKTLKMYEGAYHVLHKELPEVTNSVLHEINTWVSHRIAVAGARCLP
Protocol: Rats were sacrificed by decapitation 90 min after administration of the radioligand. Brains were rapidly removed and divided in two halves along their sagittal axis. The brain halves were frozen in dry ice for following cryosectioning. The hemisphere was placed in a cryostat and sagittal sections (10 μm thickness) were cut. Brain sections were mounted on Histobond glass slides (Marienfeld Laboratories Glassware, Germany), dried at room temperature and exposed, together with tritium microscales, to tritium-sensitive imaging plates (BAS-TR2025) for five days. The imaging plates were scanned in a Fujifilm BAS-5000 high resolution phosphor imager and the amount of [^3H]2 bound to the brain regions of interest was quantified with an MCID M2 image analysis system (Imaging Research Inc., St. Catherines, Ontario, Canada).

[4] = target: T3, MAGL; experiment: In vitro autoradiography of 11C tracers on sagittal brain sections from Wistar rats
Protocol: 10 μm sagittal brain sections from Wistar rats were used in in vitro autoradiography. On the day of experimentation, the slices were thawed on ice (10 min) and pre-conditioned in an aqueous buffer containing 30 mM 4-(2-hydroxyethyl)-1-piperazineethanesulfonic acid (HEPES), 1.2 mM MgCl2, 110 mM NaCl, 5 mM KCl, 2.5 mM CaCl2, and 1% fatty-acid-free bovine serum albumin (pH 7.4, 0° C.) for 10 min. The tissue samples were dried in air and subsequently incubated with radiotracer or a mixture of radiotracer and a cold MAGL inhibitor as a blocker at ambient temperature for 30 min. Upon completion of the incubation time, the slices were washed once for 3 min in the aqueous buffer described above, and twice for 2 min in the aqueous buffer described without 1% fatty-acid-free bovine serum albumin. After two quick dips in distilled water, the sections were dried in the air and exposed to a phosphor image plate for 1 h. The films were scanned by a BAS5000 reader (Fuji), and the data were analyzed using AIDA software, version 4.50.010 (Raytest Isotopenmessgeräte GmbH). For [^11C]1, 10 μM SAR127303 and 10 μg/mL 10 were used as blockers.

In the case of `Cc1ccc(C(F)=CC2CN(C(=O)N3CC[C@@H]4OCC(=O)N[C@@H]4C3)C2)cc1F` (mixture of isomers) [Example 10, (4aR,8aS)-6-[3-[2-Fluoro-2-(3-fluoro-4-methyl-phenyl)vinyl]azetidine-1-carbonyl]-4,4a,5,7,8,8a-hexahydropyrido[4,3-b][1,4]oxazin-3-one], the IC50 [1] is reported as 20 nM.
`COc1cccc(F)c1CC1CC2(C1)CN(C(=O)N1CC[C@@H]3OCC(=O)N[C@@H]3C1)C2` [Example 2, (4aR,8aS)-6-[6-[(2-Fluoro-6-methoxy-phenyl)methyl]-2-azaspiro[3.3]heptane-2-carbonyl]-4,4a,5,7,8,8a-hexahydropyrido[4,3-b][1,4]oxazin-3-one] showed an IC50 [1] of 0.07 nM.
For `Cc1ccc(CCC2CN(C(=O)N3CC[C@@H]4OCC(=O)N[C@@H]4C3)C2)c(F)c1` [Example 3, (4aR,8aS)-6-[3-[2-(2-Fluoro-4-methyl-phenyl)ethyl]azetidine-1-carbonyl]-4,4a,5,7,8,8a-hexahydropyrido[4,3-b][1,4]oxazin-3-one], the IC50 [1] was 5 nM.
In the case of `COc1ccc(CCC2CN(C(=O)N3CC[C@@H]4OCC(=O)N[C@@H]4C3)C2)c(C(F)(F)F)c1` [Example 4, (4aR,8aS)-6-[3-[2-[4-Methoxy-2-(trifluoromethyl)phenyl]ethyl]azetidine-1-carbonyl]-4,4a,5,7,8,8a-hexahydropyrido[4,3-b][1,4]oxazin-3-one], the IC50 [1] is reported as 6 nM.
With `O=C1CO[C@H]2CCN(C(=O)N3CC(c4ccc(C5CCC5)cc4)C3)C[C@H]2N1` [Example 5, (4aR,8aS)-6-[3-(4-Cyclobutylphenyl)azetidine-1-carbonyl]-4,4a,5,7,8,8a-hexahydropyrido[4,3-b][1,4]oxazin-3-one] the IC50 [1] was 1 nM.
`O=C1CO[C@H]2CCN(C(=O)N3CC4(CC(Cc5c(F)cccc5F)C4)C3)C[C@H]2N1` [Example 6, (4aR,8aS)-6-[6-[(2,6-Difluorophenyl)methyl]-2-azaspiro[3.3]heptane-2-carbonyl]-4,4a,5,7,8,8a-hexahydropyrido[4,3-b][1,4]oxazin-3-one] gave an IC50 [1] of 0.1 nM.
With `COc1ccccc1CC1CC2(C1)CN(C(=O)N1CC[C@@H]3OCC(=O)N[C@@H]3C1)C2` [Example 7, (4aR,8aS)-6-[6-[(2-Methoxyphenyl)methyl]-2-azaspiro[3.3]heptane-2-carbonyl]-4,4a,5,7,8,8a-hexahydropyrido[4,3-b][1,4]oxazin-3-one] the IC50 [1] was 0.2 nM.
For `CC(C)COc1ccc(C2CN(C(=O)N3CC[C@@H]4OCC(=O)N[C@@H]4C3)C2)cc1` [Example 9, (4aR,8aS)-6-[3-(4-isobutoxyphenyl)azetidine-1-carbonyl]-4,4a,5,7,8,8a-hexahydropyrido[4,3-b][1,4]oxazin-3-one], the IC50 [1] was 1 nM.
For `Cc1ccc(/C(F)=C/C2CN(C(=O)N3CC[C@@H]4OCC(=O)N[C@@H]4C3)C2)cc1F` [Example 11, (4aR,8aS)-6-[3-[(Z)-2-Fluoro-2-(3-fluoro-4-methyl-phenyl)vinyl]azetidine-1-carbonyl]-4,4a,5,7,8,8a-hexahydropyrido[4,3-b][1,4]oxazin-3-one], the IC50 [1] was 90 nM.
Molecule `Cc1ccc(/C(F)=C\C2CN(C(=O)N3CC[C@@H]4OCC(=O)N[C@@H]4C3)C2)cc1F` [Example 12, (4aR,8aS)-6-[3-[(E)-2-Fluoro-2-(3-fluoro-4-methyl-phenyl)vinyl]azetidine-1-carbonyl]-4,4a,5,7,8,8a-hexahydropyrido[4,3-b][1,4]oxazin-3-one] has an IC50 [1] of 40 nM.
For `COc1cccc(F)c1CC1CC2(C1)CN(C(=O)N1CC[C@@H]3OCC(=O)N[C@@H]3C1)C2` [Example [^3H]2, [^3H](4aR,8aS)-6-[6-[(2-Fluoro-6-methoxy-phenyl)methyl]-2-azaspiro[3.3]heptane-2-carbonyl]-4,4a,5,7,8,8a-hexahydropyrido[4,3-b][1,4]oxazin-3-one], the “binding on wt tissue samples (autoradiography)” value (“binding on wt tissue samples” for short) [2] was “Selective binding to MAGL”, the “binding on MAGL ko tissue sections (autoradiography; selectivity, non-specific binding)” value [2] was “absence of binding” and the “in vivo binding to MAGL in brain (ex vivo autoradiography)” value [3] was “Selective and specific binding to MAGL”.
For `Cc1ccc(CCC2CN(C(=O)N3CC[C@@H]4OCC(=O)N[C@@H]4C3)C2)c(F)c1` [Example [^3H]3, [^3H](4aR,8aS)-6-[3-[2-(2-Fluoro-4-methyl-phenyl)ethyl]azetidine-1-carbonyl]-4,4a,5,7,8,8a-hexahydropyrido[4,3-b][1,4]oxazin-3-one], the “binding on wt tissue samples” value [2] was “Selective binding to MAGL” and the “binding on MAGL ko tissue sections (autoradiography; selectivity, non-specific binding)” value [2] was “absence of binding”.
In the case of `COc1ccc(CCC2CN(C(=O)N3CC[C@@H]4OCC(=O)N[C@@H]4C3)C2)c(C(F)(F)F)c1` [Example [^3H]4, [^3H](4aR,8aS)-6-[3-[2-[4-Methoxy-2-(trifluoromethyl)phenyl]ethyl]azetidine-1-carbonyl]-4,4a,5,7,8,8a-hexahydropyrido[4,3-b][1,4]oxazin-3-one], the “binding on wt tissue samples” value [2] is reported as “Selective binding to MAGL” and the “binding on MAGL ko tissue sections (autoradiography; selectivity, non-specific binding)” value [2] is reported as “absence of binding”.
For `O=C1CO[C@H]2CCN(C(=O)N3CC(c4ccc(C5CCC5)cc4)C3)C[C@H]2N1` [Example [^11C]5, [^11C](4aR,8aS)-6-[3-(4-Cyclobutylphenyl)azetidine-1-carbonyl]-4,4a,5,7,8,8a-hexahydropyrido[4,3-b][1,4]oxazin-3-one], the “binding to MAGL on sagittal rat brain sections (autoradiography)” value ([4]; Wistar rat brain sections, radiotracer alone, 30 min) was “selectively bind to MAGL” and the “blocking of binding by cold MAGL inhibitors” value ([4]; co-incubation with blockers (10 μM SAR127303 and 10 μg/mL 10 for [11C]1; 10 μM SAR127303 and 10 μM PF-06795071 for [11C]5)) was “binding can be blocked”.
